Assay results as given in patent US4313956A, “Novel sypathomimetic amine prodrugs” (INTERx Research Corp., priority 1979, dated 1982).
Values joined by “and” are separate entries in the source; they are usually repeats but may differ in a detail not shown here. Identical values can stand only once.

Experiments:
[1] = system: psoriatic response; details: concentrations comparable to 3×10^-2 M; cited from earlier work
[2] = system: burn response of the right ear of female Sprague-Dawley rats; test: Ear Burn Test (anti-inflammatory activity, ear burn model); assay type: in vivo; details: for mean (-x) of Δ %, % increase in thickness of the treated ear: group mean; for R ear (thickness of burned, treated ear) / Δ %, % increase in thickness of the treated ear: individual rats; for % inhibition of control response / % inhibition of control response (negative = inflammatory): 50 μl/burned ear, vehicle 90% acetone, 10% IPM, 16-18 hours; for % inhibition of control response (negative = inflammatory): 3 × 10^-2 M
Method: The anti-inflammatory activity of dipivalyloxymethylepinephrine (DDME), a novel prodrug according to this invention, was determined in an ear burn model vis-a-vis the known epinephrine prodrug, dipivalylepinephrine (DPE). Three different ear burn experiments were carried out, each experiment developing a comparison at two different drug dosages.
A controlled thermal challenge was administered to the right ear of female Sprague-Dawley rats, 40-60 g. […] Pressure applied during the 21 second burn administration was ca. 640 g/cm^2. Two groups, with and without application of vehicle (90% acetone, 10% isopropyl-myristate) served as controls. Vehicle with or without drug was applied to the right ear immediately after burning in the amount of […]. Rats were killed by cervical disclocation 16-18 hours after treatment and the thickness of each ear was determined with a micrometer (in inches ×10^3). Burn response values were normalized by expression of the % increase in thickness of the treated ear, i.e., [formula] The vehicle-treated control group was considered to be the maximum burn response within any given experiment. Inhibition or reversal of the burn response due to drug treatment is expressed as a percentage of the control response.

[3] = 0.00001 M, n = 8, control/vehicle 44.6%
[4] = 0.0001 M, n = 8, control/vehicle 44.6%
[5] = .00003 M, control/vehicle 40.2 ± 12.6
[6] = .0003 M, control/vehicle 40.2 ± 12.6
[7] = .003 M, control/vehicle 32.5 ± 8.9
[8] = .03 M, control/vehicle 32.5 ± 8.9

SMILES	mean (-x) of Δ %, % increase in thickness of the treated ear [2, 3] [%]	R ear (thickness of burned, treated ear) ([2]; 0.00001 M)	Δ %, % increase in thickness of the treated ear ([2]; 0.00001 M)	mean (-x) of Δ %, % increase in thickness of the treated ear [2, 4] [%]	R ear (thickness of burned, treated ear) ([2]; 0.0001 M)	Δ %, % increase in thickness of the treated ear ([2]; 0.0001 M)	% inhibition of control response ([2]; 1 × 10^-4 M) [%]	% inhibition of control response ([2]; 1 × 10^-5 M) [%]	% inhibition of control response (negative = inflammatory) [2] [%]	% inhibition of control response ([2]; 3 × 10^-3 M) [%]	% inhibition of control response ([2]; 3 × 10^-4 M) [%]	% inhibition of control response ([2]; 3 × 10^-5 M) [%]	mean (-x) of Δ %, % increase in thickness of the treated ear [2, 5] [%]	R ear (thickness of burned, treated ear) ([2]; .00003 M)	Δ %, % increase in thickness of the treated ear ([2]; .00003 M)	mean (-x) of Δ %, % increase in thickness of the treated ear [2, 6] [%]	R ear (thickness of burned, treated ear) ([2]; .0003 M)	Δ %, % increase in thickness of the treated ear ([2]; .0003 M)	mean (-x) of Δ %, % increase in thickness of the treated ear [2, 7] [%]	R ear (thickness of burned, treated ear) ([2]; .003 M)	other results
CNCC(O)c1ccc(OC(=O)C(C)(C)C)c(OC(=O)C(C)(C)C)c1 (stereo not drawn) [DPE, dipivalylepinephrine]	33.3	17.8 inches ×10^3 and 15.7 inches ×10^3 and 16.2 inches ×10^3 and 18.1 inches ×10^3 and 16.1 inches ×10^3 and 14.5 inches ×10^3 and 18.3 inches ×10^3	41.3% and 26.6% and 24.6% and 29.8% and 46.0% and 26.8% and 25.0% and 46.4%	34.4	15.9 inches ×10^3 and 17.3 inches ×10^3 and 17.4 inches ×10^3 and 18.3 inches ×10^3 and 16.6 inches ×10^3 and 15.8 inches ×10^3 and 16.4 inches ×10^3 and 17.2 inches ×10^3	31.4% and 35.2% and 35.9% and 48.8% and 32.8% and 26.4% and 27.1% and 37.6%	22.9	25.3	-21.5	8	31.3	19.7	32.3 ± 5.2	16.4 inches ×10^3 and 18.2 inches ×10^3 and 17.5 inches ×10^3 and 18.1 inches ×10^3 and 16.8 inches ×10^3 and 18.5 inches ×10^3 and 14.5 inches ×10^3 and 16.0 inches ×10^3	29.1% and 32.8% and 31.6% and 40.3% and 36.6% and 37.0% and 22.9% and 30.1%	27.6 ± 6.9	15.8 inches ×10^3 and 16.4 inches ×10^3 and 18.0 inches ×10^3 and 18.3 inches ×10^3 and 17.7 inches ×10^3 and 16.6 inches ×10^3 and 15.2 inches ×10^3 and 16.2 inches ×10^3	27.4% and 26.2% and 27.7% and 35.6% and 34.1% and 12.6% and 29.6%	29.9 ± 10.8	18.6 inches ×10^3 and 19.6 inches ×10^3 and 19.8 inches ×10^3 and 16.7 inches ×10^3 and 16.5 inches ×10^3 and 17.1 inches ×10^3 and 13.4 inches ×10^3 and 17.2 inches ×10^3	psoriatic response in clinical observations [1]: a psoriatic response was often observed; Δ %, % increase in thickness of the treated ear ([2]; .003 M): 39.8% and 41.0% and 43.5% and 21.9% and 23.1% and 29.5% and 12.6% and 27.4%; mean (-x) of Δ %, % increase in thickness of the treated ear [2, 8]: 39.5 ± 11.4%; R ear (thickness of burned, treated ear) ([2]; .03 M): 17.5 inches ×10^3 and 21.3 inches ×10^3 and 18.1 inches ×10^3 and 18.5 inches ×10^3 and 20.0 inches ×10^3 and 17.4 inches ×10^3 and 15.7 inches ×10^3 and 18.3 inches ×10^3; Δ %, % increase in thickness of the treated ear ([2]; .03 M): 32.6% and 56.6% and 43.7% and 37.0% and 52.7% and 28.9% and 23.6% and 40.8%
CNCC(O)c1ccc(OCOC(=O)C(C)(C)C)c(OCOC(=O)C(C)(C)C)c1 (stereo not drawn) [DPME, dipivalyloxymethylepinephrine]	30.5	16.3 inches ×10^3 and 16.5 inches ×10^3 and 13.8 inches ×10^3 and 14.1 inches ×10^3 and 17.0 inches ×10^3 and 14.7 inches ×10^3 and 17.8 inches ×10^3 and 16.8 inches ×10^3	30.4% and 35.2% and 16.9% and 22.6% and 41.7% and 20.5% and 40.2% and 36.6%	23.0	14.0 inches ×10^3 and 14.7 inches ×10^3 and 13.6 inches ×10^3 and 14.5 inches ×10^3 and 15.4 inches ×10^3 and 14.9 inches ×10^3 and 15.3 inches ×10^3	18.6% and 23.5% and 12.4% and 21.8% and 31.6% and 22.5% and 26.3% and 27.5%	48.4	31.6	-32.6	8	41.3	30.6	27.9 ± 6.2	15.3 inches ×10^3 and 17.8 inches ×10^3 and 16.6 inches ×10^3 and 16.3 inches ×10^3 and 15.5 inches ×10^3 and 15.4 inches ×10^3 and 16.9 inches ×10^3	17.7% and 38.0% and 31.7% and 25.4% and 26.0% and 24.2% and 32.8% and 27.0%	23.6 ± 7.9	17.7 inches ×10^3 and 16.4 inches ×10^3 and 18.0 inches ×10^3 and 17.5 inches ×10^3 and 15.2 inches ×10^3 and 15.5 inches ×10^3 and 15.0 inches ×10^3 and 14.8 inches ×10^3	22.1% and 17.1% and 38.5% and 31.6% and 22.6% and 24.0% and 17.2% and 15.6%	29.9 ± 12.2	19.9 inches ×10^3 and 15.1 inches ×10^3 and 18.1 inches ×10^3 and 17.0 inches ×10^3 and 17.1 inches ×10^3 and 15.2 inches ×10^3 and 14.0 inches ×10^3 and 16.9 inches ×10^3	Δ %, % increase in thickness of the treated ear ([2]; .003 M): 45.3% and 21.8% and 42.5% and 26.9% and 41.3% and 17.8% and 12.9% and 31.0%; mean (-x) of Δ %, % increase in thickness of the treated ear [2, 8]: 43.1 ± 12.4%; R ear (thickness of burned, treated ear) ([2]; .03 M): 18.4 inches ×10^3 and 16.9 inches ×10^3 and 20.7 inches ×10^3 and 18.2 inches ×10^3 and 19.3 inches ×10^3 and 20.9 inches ×10^3 and 19.0 inches ×10^3; Δ %, % increase in thickness of the treated ear ([2]; .03 M): 36.3% and 30.0% and 47.9% and 43.0% and 64.6% and 49.6%; anti-inflammatory effect compared with DPE ([2]; low concentration levels): consistently elicits a greater anti-inflammatory effect than DPE; more effective as an anti-inflammatory agent from a dosage standpoint ([2]; versus DPE, dose response profiles at low concentrations): 10-30 fold
